“And” between values parts separate entries of the source, which are not always exact repeats. Identical values can stand only once. Marks after values point to notes of the source that are not given here. Bridge positions count the residues as written; N and C are the ends. Square brackets hold non-standard residues; d marks the D form. Peptide text beside a SMILES is read from it. Trp(1-Me) = Cn1cc(C[C@H](N)C(=O)O)c2ccccc21
Columns and labels:
[1] = test system: complement alternative pathway (AP); experiment: C3b ELISA (inhibition of C3b formation); format: biochemical, human; conditions: for IC50: Table 9, means from three independent experiments, read-out: IC50, C3b ELISA
Method: Inhibition of the complement alternative pathway (AP) by compstatin family peptides was assayed by ELISA. Peptides were dissolved in phosphate buffered saline (PBS, 150 mM). Initial peptide concentrations were calculated using the Beer-Lambert Law with an extinction coefficient of 5,500 (1/M·cm) for Trp and 5,470 (1/M·cm) for methylated-Trp present in the sequence, at 280 nm. Nunc Maxisorp 96-well plates were coated with 1 μg lipopolysaccharides (LPS) from Salmonella enteriditis for ˜16 h at room temperature. Plates were washed three times with PBS/0.05% Tween-20 (PBS-T) between each step. Plates were blocked with 4% bovine serum albumin (BSA) in PBS-T for 1 h at 37° C. Serial peptide dilutions were performed in 96-well plates, using gelatin veronal-buffered saline with 5 mM MgCl2 and 10 mM EGTA (GVBS-MgEGTA). Normal human serum (Complement Technology Inc., Tyler, Tex., USA) was diluted in GVBS-MgEGTA and mixed with compstatin serial dilutions to a final concentration of 30%. Serum diluted in GVBS-MgEGTA and GVBS (containing 20 mM EDTA) were used as positive and negative controls for complement activation, respectively. Dilutions were preincubated for 15 minutes at room temperature, transferred to ELISA plates, and incubated for 1 h at 37° C. Generation of C3b and C5b-9 were assayed using horseradish peroxidase (HRP)-conjugated anti-C3 (MP Biomedicals, Solon, Ohio, USA) and anti-05b-9 aEll (Abcam, Cambridge, Mass., USA), respectively. Plates were washed and incubated with either anti-C3-HRP (1:5000 in 1% BSA/PBS-T) or anti-05b-9 (1:1000 in 1% BSA/PBS-T) for 1 h at 37° C. For C5b-9 detection, primary antibody incubation was followed by incubation with anti-mouse-HRP (BioRad, Hercules, Calif., USA) for 1 h at 37° C. (1:5000 in 1% BSA/PBS-T). Bound C3b and C5b-9 were quantified using a 3,3′,5,5′-tetramethylbenzidine substrate solution containing urea hydrogen peroxide in 0.11 M sodium acetate buffer, followed by a 1 N H2SO4 acid stop. Plates were measured spectrophotometrically at 450 nm. Percent inhibition of C3b and C5b-9 deposition was plotted against peptide concentration and the data was fitted to a logistic dose response curve with Prism software (GraphPad, San Diego, Calif., USA) to determine IC50 values.
In all assays, MgEGTA was used to chelate Ca′ ions required for classical/lectin pathway complement activation, while providing Mg′ necessary for AP activation. ELISAs allow for direct detection of C3b and C5b-9 formed during AP activation, while erythrocyte lysis assays provide a functional assessment of AP-mediated hemolysis in serum. […] Table 9 summarizes the IC50 values derived from the three different assays. […] The relative potencies of the peptides, based on the measured ICH values, are consistent across all three assays (Peptide III˜Peptide VI˜Peptide IX>Peptide I>Parent). Based on the assay conditions used in this study, peptides inhibited C5b-9 formation with moderately better efficacy than formation of C3b, while slightly higher concentrations were necessary to inhibit AP-mediated hemolysis.

Human fetal RPE cells = experiment: RPE cell-based assay: confocal analysis of deposit-associated C5b-9 (normalized to ApoE); conditions: peptide 1 μM; for deposit-associated C5b-9 (C5b-9/ApoE) relative to positive control: ~24 hrs, mean±S.E.M., RPE cultures of three donors; for Confocal Imaging % of positive control: deposit-associated C5b-9 normalized to ApoE, Mean (S.E.M.)
Method: The in vitro drusen biogenesis model was employed. Human fetal RPE cells (Advanced Bioscience Resources, Alameda, Calif.) were cultured on Millipore HA porous supports (Millipore, Cat # PIHA 01250) in Miller medium (Maminishkis et al., 2006) supplemented with 5% fetal calf serum (FCS). Cultures derived from three different donor eyes were employed. Cells were rinsed with warm, sterile PBS and the insert membrane was excised with a scalpel and cut into small (˜4 mm^2) pieces which were placed in wells of a 96-well plate. To minimize effects of inter-culture variability, samples prepared from a single membrane were utilized for each experiment. The samples were rinsed in PBS and then exposed individually to the library of compstatin family peptides at 1 μM in FCS-free Miller medium containing 10% human complement serum (Innovative Research, Cat # IPLA-CSER AB, Lot # L12402). In preliminary experiments, compstatin family Peptides I, III, VI, VII, VIII, IX, and Parent (Table 7), were tested in the RPE cell assay at 100 μM and titrated by C5b-9 ELISA over a concentration range of 0.04-130 μM. […] Also from this assessment, Peptide VI, as well as Peptides I and III, were selected for further studies. Peptides I and III were chosen for comparative studies to Peptide VI, because they contain an arginine residue at position 1. The goal was to determine whether peptides containing arginine at position −1 (Peptide VI) or at position 1 (Peptides I and III) were potent complement inhibitors using the RPE cell assay and had improved aqueous solubility compared to previously known potent analogs. Negative control cells were exposed to Miller medium+5% FCS; positive control cells were exposed to Miller medium+10% human complement serum without inhibitory peptides. Experimental and control medium/inhibitor solutions were pre-mixed on a rocker at room temperature for 30 min, then warmed to 37° C., prior to placement on the samples and incubation for ˜24 hrs at 37° C. in a 7.0% CO2 incubator. Following the incubation period, the medium was removed and stored frozen prior to ELISA analysis. The cell/membrane samples were rinsed in PBS, fixed in cold 4% paraformaldehyde (PFA) in PBS for 20 min, and stored in 0.4% PFA until use in immunohistochemical assays.
Fixed samples were rinsed several times in PBS, embedded in 10% agarose (Type XI, Sigma-Aldrich, Cat # A3038) and sectioned at 100 μm on a vibratome. Sections were blocked with normal donkey serum ( 1/20 in PBT: PBS containing 0.5% bovine serum albumin and 0.1% Triton X-100) overnight at 4° C. The sections were then co-incubated in two primary antibodies (polyclonal goat anti-ApoE, Millipore Cat # AB947; 1/1000 in PBT, and mouse monoclonal anti-05b-9 aEll, Dako Cat # M0777; 1/200 in PBT) overnight at 4° C., then rinsed in PBT and co-incubated in secondary antibodies (Alexa Fluor 546-conjugated donkey anti-goat IgG and Alexa Fluor 488-conjugated donkey anti-mouse IgG, both 1/200 in PBT; Life Technologies Cat # A-11056 and # A-21202) overnight at 4° C. Sections were rinsed in PBT, stained with Hoechst 33342 (Life Technologies Cat # H3570), and mounted on slides with Prolong Gold (Life Technologies Cat # P36930).
Samples were imaged on an Olympus FV1000 confocal laser scanning microscope. A total of 154 single-plane images were acquired at a resolution of 1024×768 pixels and the digital image files were saved in 24-bit tiff format. Digital image analysis was performed with MetaMorph software (Molecular Devices, Sunnyvale, Calif.). For the analysis, a standard measurement region, which included both the RPE cell monolayer and all of the adjacent sub-cellular deposits, was applied to each image. The Set Threshold Color Tool was utilized to analyze each color channel separately; the threshold tool creates a boundary around the objects being measured (i.e., sub-cellular deposits) on the basis of color intensity. […]

## CC[C@H](C)[C@H](N)C(=O)N[C@H]1CSSC[C@@H](C(=O)N[C@H](C(N)=O)[C@@H](C)O)NC(=O)[C@H](CCCN=C(N)N)NC(=O)[C@H](Cc2cnc[nH]2)NC(=O)[C@H](Cc2cnc[nH]2)NC(=O)CNC(=O)[C@H](Cc2c[nH]c3ccccc23)NC(=O)[C@H](CC(=O)O)NC(=O)[C@H](CCC(N)=O)NC(=O)[C@H](C(C)C)NC(=O)[C@H](C(C)C)NC1=O [Parent, ICV VQDWGH HRCT-NH2, reference compound]
[1]; C3b inhibition in ELISA, versus Peptides I, III, VI, IX
  inhibition less than other peptides: 10- to 15 fold
[1]
  IC50: 35000 nM
Human fetal RPE cells; 10% human complement serum
  deposit-associated C5b-9 (C5b-9/ApoE) relative to positive control: 83.2±5.9%
Human fetal RPE cells
  Confocal Imaging % of positive control: 83.19 (5.92) % of positive control

## CC(=O)N[C@@H](CCCNC(=N)N)C(=O)N[C@H]1CSSC[C@@H](C(=O)N[C@H](C(N)=O)[C@@H](C)O)NC(=O)[C@H](CCCNC(=N)N)NC(=O)[C@H](Cc2c[nH]cn2)NC(=O)[C@H](C)NC(=O)CNC(=O)[C@H](Cc2c[nH]c3ccccc23)NC(=O)[C@H](CC(=O)O)NC(=O)[C@H](CCC(N)=O)NC(=O)[C@H](Cc2c[nH]c3ccccc23)NC(=O)[C@H](C(C)C)NC1=O [Peptide I, Ac- RCV WQDWGA HRCT-NH2] (Ac-RCVWQDWGAHRCT-NH2; disulfide 2-12)
[1]
  IC50: 2580 nM
Human fetal RPE cells; 10% human complement serum
  deposit-associated C5b-9 (C5b-9/ApoE) relative to positive control: 55.3±12.3%
Human fetal RPE cells
  Confocal Imaging % of positive control: 55.27 (12.30)^a % of positive control

## CC(=O)N[C@@H](CCCNC(=N)N)C(=O)N[C@H]1CSSC[C@@H](C(=O)N[C@H](C(N)=O)[C@@H](C)O)NC(=O)[C@H](CCCNC(=N)N)NC(=O)[C@H](Cc2c[nH]cn2)NC(=O)[C@H](C)NC(=O)CNC(=O)[C@H](Cc2c[nH]c3ccccc23)NC(=O)[C@H](CC(=O)O)NC(=O)[C@H](CCC(N)=O)NC(=O)[C@H](Cc2cn(C)c3ccccc23)NC(=O)[C@H](C(C)C)NC1=O [Peptide III, Ac- RCV meWQDWGA HRCT-NH2] (Ac-RCV[Trp(1-Me)]QDWGAHRCT-NH2; disulfide 2-12)
[1]
  IC50: 1420 nM
Human fetal RPE cells; 10% human complement serum
  deposit-associated C5b-9 (C5b-9/ApoE) relative to positive control: 20.0±6.8%
Human fetal RPE cells
  Confocal Imaging % of positive control: 19.98 (6.84) % of positive control

## CC[C@H](C)[C@H](NC(=O)[C@H](CO)NC(=O)[C@H](CCCNC(=N)N)NC(C)=O)C(=O)N[C@H]1CSSC[C@@H](C(=O)N[C@H](C(N)=O)[C@@H](C)O)NC(=O)[C@H](CCCNC(=N)N)NC(=O)[C@H](Cc2c[nH]cn2)NC(=O)[C@H](C)NC(=O)CNC(=O)[C@H](Cc2c[nH]c3ccccc23)NC(=O)[C@H](CC(=O)O)NC(=O)[C@H](CCC(N)=O)NC(=O)[C@H](Cc2cn(C)c3ccccc23)NC(=O)[C@H](C(C)C)NC1=O [Peptide VI, Ac-RS-ICV meWQDWGA HRCT-NH2]
[1]
  IC50: 1740 nM
Human fetal RPE cells; RPE 020207, 10% human complement serum, one value per image
  Deposit-associated C5b9 (green channel) immunofluorescence, Integrated Area: 86318 pixels and 70370 pixels and 77727 pixels and 91254 pixels and 59969 pixels
Human fetal RPE cells; 10% human complement serum
  deposit-associated C5b-9 (C5b-9/ApoE) relative to positive control: 14.9±5.6%
Human fetal RPE cells
  Confocal Imaging % of positive control: 14.85 (5.61) % of positive control

Source: patent US9512180B2, “Compstatin analogs” (THE REGENTS OF THE UNIVERSITY OF CALIFORNIA, priority 2012, dated 2016)
